Molecules are shown by their SMILES.

These results are taken from US8653003B2, “Pyrazol-4-yl carboxamide derivatives as microbiocides” (Syngenta Participations AG, priority 2011, dated 2014).

For data set [1], the system named is Puccinia recondita. Put plainly: Protective action against Puccinia recondita (brown rust) on wheat leaf segments. As to conditions: foliar, 192 h, 0.02% active ingredient sprayed on wheat leaf segments, assessed 8 days after inoculation, read-out: preventive fungicidal activity (inhibition). It counts as in vivo. As for the experimental part:
Wheat leaf segments were placed on agar in multiwell plates (24-well format) and sprayed with test solutions (0.02% active ingredient). After drying, the leaf disks were inoculated with a spore suspension of the fungus. After appropriate incubation the activity of a compound was assessed 8 days after inoculation as preventive fungicidal activity.

The test system of data set [2] is Puccinia recondita. Put plainly: Curative action against Puccinia recondita (brown rust) on wheat leaf segments. The note with it: foliar, 0.02% active ingredient sprayed one day after inoculation, assessed 8 days after inoculation, read-out: curative fungicidal activity (inhibition). It counts as in vivo. The procedure: Wheat leaf segments were placed on agar in multiwell plates (24-well format) and inoculated with a spore suspension of the fungus. One day after inoculation the leaf segments were sprayed with test solutions (0.02% active ingredient). After appropriate incubation the activity of a compound was assessed 8 days after inoculation as curative fungicidal activity.

The test system of the next data set is Septoria tritici. Put plainly: Action against Septoria tritici - fungal growth assay. Format: cell-based. The note with it: Zymoseptoria tritici; 0.002% active ingredient, PDB broth, 24° C., photometric after 72 hrs. The procedure: Conidia of the fungus from cryogenic storage were directly mixed into nutrient broth (PDB potato dextrose broth). After placing a (DMSO) solution of the test compounds (0.002% active ingredient) into a microtiter plate (96-well format) the nutrient broth containing the fungal spores was added. The test plates were incubated at 24° C. and the inhibition of growth was determined photometrically after 72 hrs. The activity of a compound was expressed as fungal growth inhibition (0=no growth inhibition, ratings of 80% to 99% mean good to very good inhibition, 100%=complete inhibition).

The subject of another data set is Botrytis cinerea. Put plainly: Action against Botrytis cinerea - fungal growth assay. Format: cell-based. As to conditions: 0.002% active ingredient, PDB broth, 24° C., photometric after 3-4 days. The procedure: Conidia of the fungus from cryogenic storage was directly mixed into nutrient broth (PDB potato dextrose broth). After placing a (DMSO) solution of the test compounds (0.002% active ingredient) into a microtiter plate (96-well format) the nutrient broth containing the fungal spores was added. The test plates were incubated at 24° C. and the inhibition of growth was measured photometrically after 3-4 days. The activity of a compound was expressed as fungal growth inhibition (0=no growth inhibition, ratings of 80% to 99% mean good to very good inhibition, 100%=complete inhibition).

The next data set deals with Pyrenophora teres. Description: Action against Pyrenophora teres (net blotch) on barley leaf segments. The note with it: foliar, 96 h, 0.02% active ingredient sprayed on barley leaf segments, assessed 4 days after inoculation, read-out: preventive fungicidal activity (inhibition). Format: in vivo. The procedure: Barley leaf segments were placed on agar in multiwell plates (24-well format) and sprayed with test solutions (0.02% active ingredient). After drying, the leaf disks were inoculated with a spore suspension of the fungus. After appropriate incubation the activity of a compound was assessed 4 days after inoculation as preventive fungicidal activity.

In data set [3] the test system is Erysiphe graminis f. sp. tritici. Put plainly: Action against Erysiphe graminis f. sp. tritici (wheat powdery mildew), wheat leaf segments. It counts as in vivo. The note with it: Blumeria graminis, foliar, 168 h; 0.02% active ingredient sprayed on wheat leaf segments, assessed 7 days after inoculation; read-out: preventive fungicidal activity (inhibition). As for the experimental part:
Wheat leaf segments were placed on agar in multiwell plates (24-well format) and sprayed with test solutions (0.02% active ingredient). After drying, the leaf disks were inoculated with a spore suspension of the fungus. After appropriate incubation the activity of a compound was assessed 7 days after inoculation as preventive fungicidal activity.

The subject of data set [4] is Mycosphaerella arachidis (Cercospora arachidicola [anamorph]). Description: Action against Mycosphaerella arachidis (early leaf spot of groundnut) - fungal growth assay. Format: cell-based. The note with it: 0.002% active ingredient, PDB broth, 24° C., photometric after 6-7 days. The procedure:
Conidia of the fungus from cryogenic storage were directly mixed into nutrient broth (Pdb potato dextrose broth). After placing a (DMSO) solution of the test compounds (0.002% active ingredient) into a microtiter plate (96-well format) the nutrient broth containing the fungal spores was added. The test plates were incubated at 24° C. and the inhibition of growth was measured photometrically after 6-7 days. The activity of a compound was expressed as fungal growth inhibition (0=no growth inhibition, ratings of 80% to 99% mean good to very good inhibition, 100%=complete inhibition).

The melting point is the temperature, or range, at which the solid turns liquid. As a reminder, the inhibition is how much of the control response was suppressed. Molecule `CON(C(=O)c1cn(C)nc1C(F)F)C1CCCc2ccccc21` (stereo not shown) [Compound 1.001] had a melting point of 91 to 95 °C. In the data set with Puccinia recondita [1], the inhibition at 0.02 % strength was ≥ 80%. The inhibition at 0.02 % strength in the data set with Puccinia recondita [2] was ≥ 80%. Besides, the inhibition at 0.002 % strength with Septoria tritici is ≥ 80%. The inhibition at 0.002 % strength in the data set with Botrytis cinerea is ≥ 80%. In addition, the inhibition at 0.02 % strength in the data set on Pyrenophora teres is ≥ 80%. Further, the inhibition at 0.02 % strength in data set [3] was ≥ 80%. In addition, in data set [4], the inhibition at 0.002 % strength is ≥ 80%.
`CON(C(=O)c1cn(C)nc1C(F)F)C1CCCc2ccc(Cl)cc21` (stereo not shown) [Compound 1.003, 3-difluoromethyl-1-methyl-1H-pyrazole-4-carboxylic acid (7-chloro-1,2,3,4-tetrahydro-naphthalen-1-yl)-methoxy-amide]: the inhibition at 0.02 % strength (with Puccinia recondita [1]; in the data set on Puccinia recondita [2]; in the data set on Pyrenophora teres; in data set [3]) was ≥ 80% throughout. Moreover, the inhibition at 0.002 % strength (in the data set with Septoria tritici; in data set [4]) was ≥ 80% each time.
On to `CON(C(=O)c1cn(C)nc1C(F)F)C1CCCCc2ccc(I)cc21` (stereo not shown) [Compound 1.062, 3-difluoromethyl-1-methyl-1H-pyrazole-4-carboxylic acid (3-iodo-6,7,8,9-tetrahydro-5-H-benzocyclohepten-5-yl)-methoxy-amide], for which the inhibition at 0.02 % strength in the data set with Puccinia recondita [1] and in the data set on Puccinia recondita [2] was ≥ 80% each time. The inhibition at 0.002 % strength (with Septoria tritici; in data set [4]) was ≥ 80% in each case.
`CON(C(=O)c1cn(C)nc1C(F)F)C1c2ccccc2CCCC1F` (stereo not shown) [Compound 1.065, 3-difluoromethyl-1-methyl-1H-pyrazole-4-carboxylic acid (6-fluoro-6,7,8,9-tetrahydro-5-H-benzocyclohepten-5-yl)-methoxy-amide]: the inhibition at 0.02 % strength (in the data set on Puccinia recondita [1]; with Puccinia recondita [2]; in the data set with Pyrenophora teres; in data set [3]) was ≥ 80% in each case. In addition, the inhibition at 0.002 % strength (in the data set with Septoria tritici; in the data set with Botrytis cinerea; in data set [4]) was ≥ 80% each time.
